Experimental findings from US20080114047A1 (priority 2003, published 2008) are described below.

SMILES strings stand for the structures. Where two headings read alike, the source gives them in different places.

A word on the IC50: it is the concentration that inhibits the measured activity by half. As a reminder, the melting point is the temperature, or range, at which the solid turns liquid.

The subject of one data set is Trypanosoma cruzi. Nature of the data set: Anti-protozoan data: T. cruzi IC50. It is filed as cell-based. To be noted: read-out: T. cruzi IC50.
The subject of data set [1] is Trypanosoma brucei rhodesiense. Description: Anti-protozoan data: T.b.r. IC50. The data set is classed as cell-based. The settings on record: read-out: T.b.r. IC50.
The test system of data set [2] is L. donovani axenic amastigotes. Description: In vitro anti-leishmania activity (IC50 vs. L. donovani axenic amastigotes). To be noted: Leishmania donovani. It is filed as cell-based.
In a further data set the test system is Plasmodium falciparum. Description: Anti-protozoan data: P. falcip. IC50. It is filed as cell-based. To be noted: read-out: P. falcip. IC50.
[3] abbreviates: Tables VI(a), VI(c), read-out: Leishmania donovani IC50.
Setting [4] is: axenic amastigotes, Tables I-V, read-out: IC50 vs. L. donovani.

In turn, `CC(C)NC(=N)c1ccc(OCCCOc2cccc(-c3cc4ccc(C(=N)NC(C)C)cc4o3)c2)cc1.Cl.Cl` [Compound 57, 2-(3-(3-(4-(N-Isopropylcarbamimidoyl)phenoxy)propoxy)phenyl)-N-isopropylbenzofuran-6-carboxamidine dihydrochloride] showed a melting point of 213 to 217 °C. The molecule further yielded a half-maximal inhibitory concentration (IC50) in “in vitro” of 82.3 µM. The IC50 in the data set with Trypanosoma cruzi (Tables VI(a), VI(c)) amounted to 69.8 µM. Further, the 50% inhibitory concentration (IC50) in data set [1] (Tables VI(a), VI(c)) came out at 0.483 µM. Further, the IC50 in data set [2] (setting [3]) was found to be 10.6 ± 6.42 µM. Also, in data set [2] (setting [4]), the IC50 turned out to be 10.6 ± 6.42 µM. The half-maximal inhibitory concentration (IC50) in the data set with Plasmodium falciparum (Tables VI(a), VI(c)) is 0.202 µM.

For `N=C(NO)c1ccc2oc(CCCCc3cc4cc(C(=N)NO)ccc4o3)cc2c1` [Compound 186, 2-(4-(5-(N-Hydroxycarbamimidoyl)benzofuran-2-yl)butyl)-N-hydroxybenzofuran-5-carboxamidine], the IC50 in “in vitro” was more than 184 µM; in the data set with Trypanosoma cruzi (Tables VI(a), VI(c)), 152 µM; in data set [1] (Tables VI(a), VI(c)), 4.87 µM; in data set [2] (setting [3]) it was more than 100 µM; with Plasmodium falciparum (Tables VI(a), VI(c)), more than 2 µM.

`Cl.Cl.c1cc(OCCCCOc2ccc(C3=NCCN3)cc2)cc(-c2cc3ccc(C4=NCCN4)cc3o2)c1` [Compound 61, 2-(2-(3-(4-(4-(4,5-Dihydro-1H-imidazol-2-yl)phenoxy)butoxy)phenyl)benzofuran-6-yl)-4,5-dihydro-1H-imidazole dihydrochloride] yielded a melting point of 198 to 200 °C. Besides, in the data set “in vitro”, it took 5.84 µM to reach half-maximal inhibition (IC50). Further, the IC50 with Trypanosoma cruzi (Tables VI(a), VI(c)) was found to be 8.92 µM. Further, the half-maximal inhibitory concentration (IC50) in data set [1] (Tables VI(a), VI(c)) came to 2.86 µM. In data set [2] (setting [3]), the IC50 was 7.38 ± 2.55 µM. Also, the IC50 in data set [2] (setting [4]) was 7.38 ± 2.55 µM. Further, the IC50 in the data set on Plasmodium falciparum (Tables VI(a), VI(c)) is 0.0976 µM.

As to `N=C(NO)c1ccc2cc(CCCCCc3cc4ccc(C(=N)NO)cc4o3)oc2c1` [Compound 184, 2-(5-(6-(N-Hydroxycarbamimidoyl)benzofuran-2-yl)pentyl)-N-hydroxybenzofuran-6-carboxamidine], the IC50 in the data set “in vitro” came out at 19.4 µM; in the data set with Trypanosoma cruzi (Tables VI(a), VI(c)), 4.9 µM; in data set [1] (Tables VI(a), VI(c)) it was 2.2 µM; in data set [2] (setting [3]), 22.2 ± 0.64 µM; with Plasmodium falciparum (Tables VI(a), VI(c)), 17.2 µM.

In the case of `Cl.Cl.c1cc(OCCCCCOc2ccc(C3=NCCN3)cc2)cc(-c2cc3cc(C4=NCCN4)ccc3o2)c1` [Compound 40, 2-(2-(3-(5-(4-(4,5-Dihydro-1H-imidazol-2-yl)phenoxy)pentyloxy)phenyl)benzofuran-5-yl)-4,5-dihydro-1H-imidazole dihydrochloride], the melting point was 180 to 182 °C. This molecule displayed a concentration for half-maximal inhibition (IC50) in “in vitro” of 2.62 µM. The IC50 with Trypanosoma cruzi (Tables VI(a), VI(c)) is 7.88 µM. In data set [1] (Tables VI(a), VI(c)), the IC50 came out at 0.597 µM. Further, the IC50 in data set [2] (setting [3]) amounted to 16.6 ± 6.2 µM. Besides, in the data set with Plasmodium falciparum (Tables VI(a), VI(c)), the IC50 amounted to 0.099 µM.

`N=C(NO)c1ccc2oc(CCCc3cc4cc(C(=N)NO)ccc4o3)cc2c1` [Compound 185, 2-(3-(5-(N-Hydroxycarbamimidoyl)benzofuran-2-yl)propyl)-N-hydroxybenzofuran-5-carboxamidine]: the half-inhibitory concentration (IC50) in “in vitro” is 23.8 µM; with Trypanosoma cruzi (Tables VI(a), VI(c)), 9.4 µM; in data set [1] (Tables VI(a), VI(c)), 4.79 µM; in data set [2] (setting [3]), more than 50 µM; with Plasmodium falciparum (Tables VI(a), VI(c)), more than 2 µM.

For `CC(C)NC(=N)c1ccc(OCCCCOc2ccc(-c3cc4ccc(C(=N)NC(C)C)cc4o3)cc2)cc1.Cl.Cl` [Compound 72, 2-(4-(4-(4-(N-Isopropylcarbamimidoyl)phenoxy)butoxy)phenyl)-N-isopropylbenzofuran-6-carboxamidine dihydrochloride], the melting point was 280 to 283 °C. Further, in the data set “in vitro”, the IC50 worked out at 15.9 µM. The IC50 in the data set with Trypanosoma cruzi (Tables VI(a), VI(c)) stood at 12.5 µM. In data set [1] (Tables VI(a), VI(c)), the half-maximal inhibitory concentration (IC50) turned out to be 1.75 µM. Further, the IC50 in data set [2] (setting [3]) came to 4.52 ± 1.81 µM. For the same molecule, the IC50 in data set [2] (setting [4]) was 4.52 ± 1.81 µM. Besides, the IC50 in the data set on Plasmodium falciparum (Tables VI(a), VI(c)) was 0.139 µM.

Molecule `Cl.Cl.c1cc(C2=NCCN2)ccc1OCCCCOc1ccc(-c2cc3ccc(C4=NCCN4)cc3o2)cc1` [Compound 73, 2-(2-(4-(4-(4-(4,5-Dihydro-1H-imidazol-2-yl)phenoxy)butoxy)phenyl)benzofuran-6-yl)-4,5-dihydro-1H-imidazole dihydrochloride] registered a melting point of 306 to 307 °C. Moreover, in “in vitro”, the IC50 worked out at 16.9 µM. For the same molecule, the IC50 in the data set with Trypanosoma cruzi (Tables VI(a), VI(c)) came out at 9.82 µM. In data set [1] (Tables VI(a), VI(c)), the IC50 turned out to be 0.942 µM. Besides, the IC50 in data set [2] (setting [3]) is 13.2 ± 0.86 µM. Moreover, the IC50 in data set [2] (setting [4]) stood at 13.2 ± 0.86 µM. The IC50 in the data set with Plasmodium falciparum (Tables VI(a), VI(c)) was found to be 0.0461 µM.

In the case of `CONC(=N)c1ccc2oc(CCCCc3cc4cc(C(=N)NOC)ccc4o3)cc2c1` [Compound 189, 2-(4-(5-(N-Methoxycarbamimidoyl)benzofuran-2-yl)butyl)-N-methoxybenzofuran-5-carboxamidine], the IC50 was 74.3 µM in the data set “in vitro”; 61.9 µM with Trypanosoma cruzi (Tables VI(a), VI(c)); 6.87 µM in data set [1] (Tables VI(a), VI(c)); more than 100 µM in data set [2] (setting [3]); approximately 2 µM in the data set on Plasmodium falciparum (Tables VI(a), VI(c)).

Take `N=C(NO)c1ccc2oc(CCCCCc3cc4cc(C(=N)NO)ccc4o3)cc2c1` [Compound 192, 2-(5-(5-(N-Hydroxycarbamimidoyl)benzofuran-2-yl)pentyl)-N-hydroxybenzofuran-5-carboxamidine]: the IC50 in the data set “in vitro” is 27 µM; in the data set on Trypanosoma cruzi (Tables VI(a), VI(c)) it was 11.9 µM; in data set [1] (Tables VI(a), VI(c)), 5 µM; in data set [2] (setting [3]), 14.3 ± 6.49 µM; in the data set on Plasmodium falciparum (Tables VI(a), VI(c)) it was more than 1.9 µM.

With `CONC(=N)c1ccc2oc(CCCc3cc4cc(C(=N)NOC)ccc4o3)cc2c1` [Compound 188, 2-(3-(5-(N-Methoxycarbamimidoyl)benzofuran-2-yl)propyl)-N-methoxybenzofuran-5-carboxamidine], the IC50 was more than 157 µM in the data set “in vitro”; more than 157 µM in the data set on Trypanosoma cruzi (Tables VI(a), VI(c)); 8.37 µM in data set [1] (Tables VI(a), VI(c)); more than 100 µM in data set [2] (setting [3]); more than 1.7 µM in the data set on Plasmodium falciparum (Tables VI(a), VI(c)).

Take `CC(C)NC(=N)c1ccc(OCCCCOc2cccc(-c3cc4cc(C(=N)NC(C)C)ccc4o3)c2)cc1.Cl.Cl` [Compound 36, 2-(3-(4-(4-(N-Isopropylcarbamimidoyl)phenoxy)butoxy)phenyl)-N-isopropylbenzofuran-5-carboxamidine dihydrochloride]: the melting point is 207 to 210 °C. The molecule also registered an IC50 in the data set “in vitro” of 36.5 µM. In data set [1] (Tables VI(a), VI(c)), the IC50 stood at 0.537 µM. Moreover, the IC50 in data set [2] (setting [3]) was determined as 11.2 ± 0.04 µM. Besides, the half-inhibitory concentration (IC50) in data set [2] (setting [4]) was 11.2 ± 0.04 µM. The half-inhibitory concentration (IC50) in the data set with Plasmodium falciparum (Tables VI(a), VI(c)) was determined as 0.269 µM.

With `CONC(=N)c1ccc2cc(CCCCCc3cc4ccc(C(=N)NOC)cc4o3)oc2c1` [Compound 187, 2-(5-(6-(N-Methoxycarbamimidoyl)benzofuran-2-yl)pentyl)-N-methoxybenzofuran-6-carboxamidine], the IC50 in the data set “in vitro” was 34.6 µM; in the data set with Trypanosoma cruzi (Tables VI(a), VI(c)), 38.4 µM; in data set [1] (Tables VI(a), VI(c)) it was 13.8 µM; in data set [2] (setting [3]), more than 50 µM; with Plasmodium falciparum (Tables VI(a), VI(c)) it was 9.76 µM.

As for `CC(C)NC(=N)c1ccc(-c2cc3cc(C(=N)NC(C)C)ccc3o2)cc1` [Compound 164, 2-(4-(N-isopropylcarbamimidoyl)phenyl)-N-isopropylbenzofuran-5-carboxamidine], the IC50 is more than 198 µM in the data set “in vitro”; more than 198 µM in the data set on Trypanosoma cruzi; 0.125 µM in data set [1]; 1.58 ± 1.09 µM in data set [2] (read-out: L. Donovani IC50); 0.073 µM in the data set with Plasmodium falciparum.

Molecule `Cl.Cl.N=C(N)c1ccc(OCCCCCCOc2cccc(-c3cc4ccc(C(=N)N)cc4o3)c2)cc1` [Compound 65, 2-(3-(6-(4-Carbamimidoylphenoxy)hexyloxy)phenyl)benzofuran-6-carboxamidine dihydrochloride] gave a melting point of 268 to 271 °C. The molecule also registered an IC50 in “in vitro” of 4.33 µM. In addition, the IC50 in data set [1] (Tables VI(a), VI(c)) was found to be 1.22 µM. The IC50 in data set [2] (setting [3]) is 23.6 ± 1.09 µM. In addition, the half-maximal inhibitory concentration (IC50) in data set [2] (setting [4]) is 23.6 ± 1.09 µM. Further, in the data set on Plasmodium falciparum (Tables VI(a), VI(c)), the concentration for half-maximal inhibition (IC50) came out at 0.479 µM.

`CONC(=N)c1ccc(-c2cc3cc(C(=N)NOC)ccc3o2)cc1` [Compound 179, 2-(4-(N-Methoxycarbamimidoyl)phenyl)-N-methoxybenzofuran-5-carboxamidine]: the IC50 is more than 219 µM in “in vitro”; more than 219 µM in the data set with Trypanosoma cruzi; 75.4 µM in data set [1]; more than 100 µM in data set [2] (read-out: L. Donovani IC50); 2.5 µM in the data set on Plasmodium falciparum.

Consider `CC(C)NC(=N)c1ccc(OCCCCCCOc2cccc(-c3cc4cc(C(=N)NC(C)C)ccc4o3)c2)cc1.Cl.Cl` [Compound 42, 2-(3-(6-(4-(N-Isopropylcarbamimidoyl)phenoxy)hexyloxy)phenyl)-N-isopropylbenzofuran-5-carboxamidine dihydrochloride], for which the melting point was 224 to 227 °C. This molecule displayed an IC50 in the data set “in vitro” of 7.36 µM. Besides, the IC50 in data set [1] (Tables VI(a), VI(c)) came out at 1.16 µM. For the same molecule, the IC50 in data set [2] (setting [3]) came out at 6.97 ± 1.39 µM. In data set [2] (setting [4]), the IC50 was 6.97 ± 1.39 µM. In the data set on Plasmodium falciparum (Tables VI(a), VI(c)), the IC50 turned out to be 0.183 µM.

Take `Cl.Cl.N=C(N)c1ccc(OCCCCCCOc2cccc(-c3cc4cc(C(=N)N)ccc4o3)c2)cc1` [Compound 41, 2-(3-(6-(4-Carbamimidoylphenoxy)hexyloxy)phenyl)benzofuran-5-carboxamidine dihydrochloride]: the melting point was 208 to 210 °C. In addition, the IC50 in “in vitro” stood at 3.12 µM. Moreover, the IC50 in data set [1] (Tables VI(a), VI(c)) was 1.61 µM. For the same molecule, the IC50 in data set [2] (setting [3]) worked out at 22.6 ± 0.23 µM. Further, the IC50 in data set [2] (setting [4]) amounted to 22.6 ± 0.23 µM. In the data set on Plasmodium falciparum (Tables VI(a), VI(c)), the IC50 came out at 0.43 µM.

With `CC(C)NC(=N)c1ccc(OCCCCOc2cccc(-c3cc4ccc(C(=N)NC(C)C)cc4o3)c2)cc1.Cl.Cl` [Compound 60, 2-(3-(4-(4-(N-Isopropylcarbamimidoyl)phenoxy)butoxy)phenyl)-N-isopropylbenzofuran-6-carboxamidine dihydrochloride], the melting point was in the range of 228 to 230 °C. Further, the IC50 in “in vitro” is 46.5 µM. The IC50 in data set [1] (Tables VI(a), VI(c)) was 0.936 µM. Further, the IC50 in data set [2] (setting [3]) was determined as 12.3 ± 0.09 µM. Further, the IC50 in data set [2] (setting [4]) is 12.3 ± 0.09 µM. Besides, in the data set on Plasmodium falciparum (Tables VI(a), VI(c)), the IC50 worked out at 0.178 µM.
